Assay results published in PubChem BioAssay (NCI).
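GI50 is the concentration that inhibits growth by half. Definition used: TGI = concentration required for complete inhibition of growth.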

Key:
Test in all cases: DTP human tumour cell line panel, 384-well format
A498 renal = tested on: A498 renal
KM12 colon = tested on: KM12 colon
RXF 393 renal = tested on: RXF 393 renal
CCRF-CEM leukemia = tested on: CCRF-CEM leukemia
SF-268 CNS = tested on: SF-268 CNS
BT-549 breast = tested on: BT-549 breast
SK-OV-3 ovarian = tested on: SK-OV-3 ovarian
SNB-75 CNS = tested on: SNB-75 CNS
EKVX NSCLC = tested on: EKVX NSCLC
CAKI-1 renal = tested on: CAKI-1 renal
HT29 colon = tested on: HT29 colon
SF-295 CNS = tested on: SF-295 CNS
K-562 leukemia = tested on: K-562 leukemia
SN12C renal = tested on: SN12C renal
LOX IMVI melanoma = tested on: LOX IMVI melanoma
MOLT-4 leukemia = tested on: MOLT-4 leukemia
MDA-MB-435 melanoma = tested on: MDA-MB-435 melanoma
NCI/ADR-RES ovarian = tested on: NCI/ADR-RES ovarian
M14 melanoma = tested on: M14 melanoma
OVCAR-5 ovarian = tested on: OVCAR-5 ovarian
COLO 205 colon = tested on: COLO 205 colon
OVCAR-8 ovarian = tested on: OVCAR-8 ovarian
HL-60(TB) leukemia = tested on: HL-60(TB) leukemia
OVCAR-4 ovarian = tested on: OVCAR-4 ovarian
T-47D breast = tested on: T-47D breast
SW-620 colon = tested on: SW-620 colon
PC-3 prostate = tested on: PC-3 prostate
DU-145 prostate = tested on: DU-145 prostate
HCC-2998 colon = tested on: HCC-2998 colon
SNB-19 CNS = tested on: SNB-19 CNS
HS 578T breast = tested on: HS 578T breast
RPMI-8226 leukemia = tested on: RPMI-8226 leukemia
IGROV1 ovarian = tested on: IGROV1 ovarian
MCF7 breast = tested on: MCF7 breast
SK-MEL-28 melanoma = tested on: SK-MEL-28 melanoma
HCT-116 colon = tested on: HCT-116 colon
NCI-H522 lung = tested on: NCI-H522 lung
ACHN renal = tested on: ACHN renal
NCI-H23 lung = tested on: NCI-H23 lung
MDA-MB-231 breast = tested on: MDA-MB-231 breast
A549 NSCLC = tested on: A549 NSCLC
UACC-257 melanoma = tested on: UACC-257 melanoma
MALME-3M melanoma = tested on: MALME-3M melanoma
U251 glioblastoma = tested on: U251 glioblastoma
HCT-15 colon = tested on: HCT-15 colon
NCI-H322M lung = tested on: NCI-H322M lung
SF-539 CNS = tested on: SF-539 CNS
TK-10 renal = tested on: TK-10 renal
UO-31 renal = tested on: UO-31 renal
786-0 renal = tested on: 786-0 renal
UACC-62 melanoma = tested on: UACC-62 melanoma
SK-MEL-5 melanoma = tested on: SK-MEL-5 melanoma
HOP-92 NSCLC = tested on: HOP-92 NSCLC
MDA-MB-468 breast = tested on: MDA-MB-468 breast
NCI-H226 lung = tested on: NCI-H226 lung
HOP-62 NSCLC = tested on: HOP-62 NSCLC
NCI-H460 NSCLC = tested on: NCI-H460 NSCLC
OVCAR-3 ovarian = tested on: OVCAR-3 ovarian

Q: What does the source list for `C[C@@H]1CN(Cc2ccc(F)cc2)[C@@H](C)CN1C(=O)c1cc2c(C(=O)C(=O)N(C)C)cn(C)c2cc1Cl`?
A: GI50 (A498 renal): 13.6 µM; TGI (A498 renal): 29.2 µM; GI50 (KM12 colon): 14.8 µM; TGI (KM12 colon): 29.7 µM; GI50 (RXF 393 renal): 14.9 µM; TGI (RXF 393 renal): 28.9 µM; GI50 (CCRF-CEM leukemia): 15.3 µM; TGI (CCRF-CEM leukemia): 28.8 µM; GI50 (SF-268 CNS): 2.33 µM; TGI (SF-268 CNS): 14.7 µM; GI50 (BT-549 breast): 17.7 µM; TGI (BT-549 breast): 31.8 µM; GI50 (SK-OV-3 ovarian): 19.6 µM; TGI (SK-OV-3 ovarian): 42.7 µM; GI50 (SNB-75 CNS): 15.7 µM; TGI (SNB-75 CNS): 33.8 µM; GI50 (EKVX NSCLC): 15.3 µM; TGI (EKVX NSCLC): 35 µM; GI50 (CAKI-1 renal): 15.4 µM; TGI (CAKI-1 renal): 41 µM; GI50 (HT29 colon): 12.7 µM; TGI (HT29 colon): 27 µM; GI50 (SF-295 CNS): 16.4 µM; TGI (SF-295 CNS): 31.9 µM; GI50 (K-562 leukemia): 7.01 µM; TGI (K-562 leukemia): 20.8 µM; GI50 (SN12C renal): 15.8 µM; TGI (SN12C renal): 31.7 µM; GI50 (LOX IMVI melanoma): 14.8 µM; TGI (LOX IMVI melanoma): 28.5 µM; GI50 (MOLT-4 leukemia): 12.9 µM; TGI (MOLT-4 leukemia): 25.7 µM; GI50 (MDA-MB-435 melanoma): 15.5 µM; TGI (MDA-MB-435 melanoma): 31.1 µM; GI50 (NCI/ADR-RES ovarian): 18.3 µM; TGI (NCI/ADR-RES ovarian): 41.6 µM; GI50 (M14 melanoma): 14.1 µM; TGI (M14 melanoma): 28.8 µM; GI50 (OVCAR-5 ovarian): 19.9 µM; TGI (OVCAR-5 ovarian): 52.1 µM; GI50 (COLO 205 colon): 10.9 µM; TGI (COLO 205 colon): 23.7 µM; GI50 (OVCAR-8 ovarian): 17.9 µM; TGI (OVCAR-8 ovarian): 38.9 µM; GI50 (HL-60(TB) leukemia): 20.7 µM; TGI (HL-60(TB) leukemia): 35.1 µM; GI50 (OVCAR-4 ovarian): 22.4 µM; TGI (OVCAR-4 ovarian): 46.9 µM; GI50 (T-47D breast): 1.99 µM; TGI (T-47D breast): 17.2 µM; GI50 (SW-620 colon): 18 µM; TGI (SW-620 colon): 40.9 µM; GI50 (PC-3 prostate): 18.6 µM; TGI (PC-3 prostate): 35 µM; GI50 (DU-145 prostate): 19.1 µM; TGI (DU-145 prostate): 37.8 µM; GI50 (HCC-2998 colon): 17.1 µM; TGI (HCC-2998 colon): 31.5 µM; GI50 (SNB-19 CNS): 24.1 µM; TGI (SNB-19 CNS): 58.1 µM; GI50 (HS 578T breast): 12.7 µM; TGI (HS 578T breast): 26.5 µM; GI50 (RPMI-8226 leukemia): 12.2 µM; TGI (RPMI-8226 leukemia): 24.7 µM; GI50 (IGROV1 ovarian): 14.2 µM; TGI (IGROV1 ovarian): 28.3 µM; GI50 (MCF7 breast): 10.8 µM; TGI (MCF7 breast): 24.1 µM; GI50 (SK-MEL-28 melanoma): 16.1 µM; TGI (SK-MEL-28 melanoma): 31.6 µM; GI50 (HCT-116 colon): 16.1 µM; TGI (HCT-116 colon): 30.5 µM; GI50 (NCI-H522 lung): 20.5 µM; TGI (NCI-H522 lung): 38.1 µM; GI50 (ACHN renal): 14.4 µM; TGI (ACHN renal): 43 µM; GI50 (NCI-H23 lung): 20.1 µM; TGI (NCI-H23 lung): 44.5 µM; GI50 (MDA-MB-231 breast): 23.2 µM; TGI (MDA-MB-231 breast): 61.9 µM; GI50 (A549 NSCLC): 13.8 µM; TGI (A549 NSCLC): 35.5 µM; GI50 (UACC-257 melanoma): 19.7 µM; TGI (UACC-257 melanoma): 34.1 µM; GI50 (MALME-3M melanoma): 18.3 µM; TGI (MALME-3M melanoma): 32.6 µM; GI50 (U251 glioblastoma): 16.4 µM; TGI (U251 glioblastoma): 30.7 µM; GI50 (HCT-15 colon): 19.8 µM; TGI (HCT-15 colon): 39.3 µM; GI50 (NCI-H322M lung): 17.5 µM; TGI (NCI-H322M lung): 35.3 µM; GI50 (SF-539 CNS): 17.2 µM; TGI (SF-539 CNS): 31.3 µM; GI50 (TK-10 renal): 23.8 µM; TGI (TK-10 renal): 52.3 µM; GI50 (UO-31 renal): 15.1 µM; TGI (UO-31 renal): 29.6 µM; GI50 ([…]-0 renal): 13.6 µM; TGI (786-0 renal): 28.5 µM; GI50 (UACC-62 melanoma): 8.17 µM; TGI (UACC-62 melanoma): 20.9 µM; GI50 (SK-MEL-5 melanoma): 7.47 µM; TGI (SK-MEL-5 melanoma): 20.5 µM; GI50 (HOP-92 NSCLC): 17.1 µM; TGI (HOP-92 NSCLC): 31.2 µM; GI50 (MDA-MB-468 breast): 2.8 µM; TGI (MDA-MB-468 breast): 17.4 µM; GI50 (NCI-H226 lung): 10.3 µM; TGI (NCI-H226 lung): 23.9 µM; GI50 (HOP-62 NSCLC): 10.8 µM; TGI (HOP-62 NSCLC): 24.1 µM; GI50 (NCI-H460 NSCLC): 12.7 µM; TGI (NCI-H460 NSCLC): 26.9 µM; GI50 (OVCAR-3 ovarian): 17.8 µM; TGI (OVCAR-3 ovarian): 32.1 µM
